Assay results as given in ChEMBL document CHEMBL1201862, “PubChem BioAssay data set” (2004).
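Method: 48-hour compound exposure of cells in 96-well plates, five concentrations, linear interpolation of endpoints. GI50 = concentration required for 50% inhibition of growth.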 Calls of active or inactive are those of the source. Rule as the data show it: active = GI50 up to about 1.1 µM and inactive = higher.

How the values were obtained:
Experiment in all cases: NCI tumour cell line growth inhibition, 48 h
COLO 205 = system: COLO 205
MDA-MB-231 = system: MDA-MB-231
BT-549 = system: BT-549
RXF 393 = system: RXF 393
SK-OV-3 = system: SK-OV-3
U-251 = system: U-251
SN12C = system: SN12C
OVCAR-3 = system: OVCAR-3
T47D = system: T47D
SK-MEL-5 = system: SK-MEL-5
OVCAR-8 = system: OVCAR-8
RPMI-8226 = system: RPMI-8226
SW-620 = system: SW-620
MCF7 = system: MCF7
TK-10 = system: TK-10
SNB-75 = system: SNB-75
M14 = system: M14
MDA-MB-435 = system: MDA-MB-435
HCC 2998 = system: HCC 2998

Structure (SMILES) | GI50 (COLO 205) | GI50 (MDA-MB-231) | GI50 (BT-549) | GI50 (RXF 393) | GI50 (SK-OV-3) | GI50 (U-251) | GI50 (SN12C) | GI50 (OVCAR-3) | GI50 (T47D) | GI50 (SK-MEL-5) | GI50 (OVCAR-8) | GI50 (RPMI-8226) | GI50 (SW-620) | GI50 (MCF7) | GI50 (TK-10) | GI50 (SNB-75) | GI50 (M14) | GI50 (MDA-MB-435) | GI50 (HCC 2998)
CN(Cc1cnc2nc(N)nc(N)c2n1)c1ccc(C(=O)NC2CCCCC2)cc1 | 31.3 µM (inactive) | 33.6 µM (inactive) | 23.2 µM (inactive) | 33 µM (inactive) | 54.6 µM (inactive) | 11.8 µM (inactive) | 75 µM (inactive) | 56.2 µM (inactive) | 87.1 µM (inactive) | 12.3 µM (inactive) | 14.2 µM (inactive) | > 100 µM (inactive) | 11.1 µM (inactive) | 29 µM (inactive) | 51.3 µM (inactive) | 25.2 µM (inactive) | 10.6 µM (inactive) |  | 
CC(C)(C)OC(=O)CC(NC(=O)OC(C)(C)C)C(=O)N[C@@H]1CCCC[C@H]1C(=O)OCc1ccccc1 (stereo partly specified) | 19.3 µM (inactive) | 32.5 µM (inactive) |  | > 100 µM (inactive) | 19.2 µM (inactive) | 19.5 µM (inactive) | 18.2 µM (inactive) | 28.9 µM (inactive) | 22.3 µM (inactive) | 12.1 µM (inactive) | 28.8 µM (inactive) | 20.5 µM (inactive) | 37.5 µM (inactive) | 26.9 µM (inactive) | 17.8 µM (inactive) | 23.1 µM (inactive) | 36.1 µM (inactive) | 29.6 µM (inactive) | 20.6 µM (inactive)
c1cc2c(cc1[C@@H]1OC[C@@H]3[C@H]1CO[C@H]3c1ccc3c(c1)OCO3)OCO2 | > 100 µM (inactive) | 94 µM (inactive) |  | 20.8 µM (inactive) | > 100 µM (inactive) | 60.4 µM (inactive) | > 100 µM (inactive) | 43.5 µM (inactive) | 46.3 µM (inactive) | 16 µM (inactive) | > 100 µM (inactive) | 46.3 µM (inactive) | 58.3 µM (inactive) | 34.9 µM (inactive) | 30.3 µM (inactive) | > 100 µM (inactive) | 62.8 µM (inactive) | 54.2 µM (inactive) | > 100 µM (inactive)
CCOP(=O)(OCC)OC1CC(n2cnc3c(N(CC)CC)ncnc32)OC1CO[Si](C)(C)C(C)(C)C (stereo unspecified) | 18.5 µM (inactive) |  | 16.1 µM (inactive) | 16.9 µM (inactive) | 17.5 µM (inactive) | 15.1 µM (inactive) | 19.4 µM (inactive) | 20.3 µM (inactive) | 12 µM (inactive) | 17.3 µM (inactive) | 21.1 µM (inactive) | 28 µM (inactive) | 16.2 µM (inactive) | 21.8 µM (inactive) | 18.3 µM (inactive) | 11.1 µM (inactive) | 18.8 µM (inactive) | 17.3 µM (inactive) | 23.2 µM (inactive)
COc1cc(NC(C)c2ccc3c(c2)OCCO3)cc(OC)c1OC (stereo unspecified) | 31.3 µM (inactive) | 32.5 µM (inactive) | 33 µM (inactive) | 27.3 µM (inactive) |  | 29.5 µM (inactive) | 63.2 µM (inactive) | 32.1 µM (inactive) |  | 18.5 µM (inactive) | 47.3 µM (inactive) | 23.9 µM (inactive) | 33.9 µM (inactive) | 29.6 µM (inactive) | 63 µM (inactive) |  | 31.4 µM (inactive) | 4.69 µM (inactive) | 23 µM (inactive)
CC(C)[C@]12O[C@H]1[C@@H]1O[C@@]13[C@@]1(C)CCC4=C(COC4=O)[C@@H]1C[C@@H]1O[C@@]13C2=O [TRIPTONIDE] | < 0.0113 µM (active) | 0.0248 µM (active) |  | < 0.01 µM (active) | 0.0397 µM (active) | 0.101 µM (active) | < 0.0172 µM (active) | < 0.0133 µM (active) | 0.0238 µM (active) | 0.0141 µM (active) | 0.0339 µM (active) | < 0.01 µM (active) |  | < 0.01 µM (active) | 0.0261 µM (active) | 0.0108 µM (active) | 0.0173 µM (active) | 0.0103 µM (active) | 0.029 µM (active)
CN(C)Cc1cc(C=O)cc(CN(C)C)c1O | > 100 µM (inactive) | > 100 µM (inactive) | > 100 µM (inactive) | > 100 µM (inactive) |  | > 100 µM (inactive) | > 100 µM (inactive) | > 100 µM (inactive) |  | > 100 µM (inactive) | > 100 µM (inactive) | > 100 µM (inactive) | > 100 µM (inactive) | > 100 µM (inactive) | > 100 µM (inactive) | > 100 µM (inactive) |  | > 100 µM (inactive) | > 100 µM (inactive)
O=[N+]([O-])c1ccc2nc3ccc([N+](=O)[O-])cn3c2c1 | > 100 µM (inactive) | 33 µM (inactive) | > 100 µM (inactive) | 48.9 µM (inactive) | > 100 µM (inactive) | 36 µM (inactive) | 42.4 µM (inactive) |  | > 100 µM (inactive) | > 100 µM (inactive) | 39 µM (inactive) |  | > 100 µM (inactive) | 63.7 µM (inactive) | 98.6 µM (inactive) | 43.1 µM (inactive) | > 100 µM (inactive) | > 100 µM (inactive) | 
